For 20 molecules, TGI and GI50 results are on record in PubChem BioAssay (NCI).

Some test systems named below: SNB-78 CNS; RPMI-8226 leukemia; NCI-H460 lung; SK-MEL-2 melanoma; IGROV1 ovarian; XF 498 CNS; HOP-92 NSCLC; HT29 colon; A498 renal; DLD-1 colon; RXF-631 renal; MDA-MB-435.
Holding throughout (assay): NCI tumour cell line growth inhibition, 48 h

Several values for one entry are separate records, joined by “and”; a condition that tells them apart may be missing. Equal entries are not always repeated.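 Compound exposure: 48 hours, 5 concentrations, 96-well plates. GI50 is the concentration that inhibits growth by half. TGI denotes the concentration required for complete inhibition of growth.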 Where a SMILES comes first, the peptide text is derived from it. [ ]: non-standard residue; d: D form. 2Nal = N[CH](Cc1ccc2ccccc2c1)C(=O)O

With `CC(NC1CCC[C@H]1O)c1ccccc1` (mixture of isomers), the TGI in the assay with SNB-78 CNS, with RPMI-8226 leukemia, in the assay on NCI-H460 lung, in the assay with SK-MEL-2 melanoma, with IGROV1 ovarian and with XF 498 CNS was over 100 µM throughout. The TGI in the assay on HOP-92 NSCLC, in the assay on HT29 colon and with A498 renal was over 100 µM in each case.

With `CN(C)CC1(C)CC/C(=C\c2ccc3c(c2)OCO3)C1=O` (configuration not stated), the TGI was over 100 µM in the assay with SNB-78 CNS; 81.4 µM with RPMI-8226 leukemia; over 100 µM with NCI-H460 lung; over 100 µM in the assay with SK-MEL-2 melanoma; over 100 µM with IGROV1 ovarian; over 100 µM in the assay on XF 498 CNS. In addition, the TGI in the assay with DLD-1 colon, with HOP-92 NSCLC, in the assay with HT29 colon and with A498 renal was over 100 µM throughout.

As to `CCCCCCCCCCCCCCCCCC(=O)NCCCNCCCNC(=O)CCCCCCCCCCCCCCCCC`, the TGI with RPMI-8226 leukemia, in the assay on NCI-H460 lung, with RXF-631 renal, with IGROV1 ovarian, in the assay on DLD-1 colon and in the assay with HOP-92 NSCLC was over 100 µM each time. Moreover, the TGI in the assay on HT29 colon and in the assay with A498 renal was over 100 µM in each case.

On to `C=C1CC2(OC1=O)c1ccccc1CCc1ccccc12`, for which the TGI in the assay on SNB-78 CNS stood at 4.43 µM; in the assay with RPMI-8226 leukemia, 7.24 µM; in the assay with NCI-H460 lung, 26.7 µM; in the assay with SK-MEL-2 melanoma, 12.8 µM; in the assay on IGROV1 ovarian it was 14.1 µM; in the assay with XF 498 CNS, 3.88 µM. In addition, the TGI in the assay with DLD-1 colon amounted to 3.4 µM; in the assay with HOP-92 NSCLC, 3.14 µM; in the assay on HT29 colon, 3.6 µM; in the assay on MDA-MB-435, 6.15 µM; in the assay on A498 renal, 41.2 µM.

For `Nc1nc(N)c(-c2ccccc2)c(C(=O)Nc2ccc(Cl)c(Cl)c2)n1`, the TGI with SNB-78 CNS, in the assay with RPMI-8226 leukemia, in the assay with NCI-H460 lung, in the assay with RXF-631 renal, in the assay with SK-MEL-2 melanoma and in the assay with IGROV1 ovarian was over 100 µM each time. For the same molecule, the TGI in the assay on DLD-1 colon, with HOP-92 NSCLC, in the assay on HT29 colon and in the assay on A498 renal was over 100 µM each time.

Take `CCC(=S)N(C)O`: the TGI with SNB-78 CNS is over 100 µM; in the assay with RPMI-8226 leukemia it was 21.8 µM; with NCI-H460 lung, 70.3 µM; in the assay on SK-MEL-2 melanoma it was 86.6 µM; in the assay with IGROV1 ovarian it was over 37 µM; in the assay with XF 498 CNS it was 29.8 µM. Also, the TGI in the assay on DLD-1 colon was over 100 µM; with HOP-92 NSCLC, over 100 µM; with HT29 colon it was 24.1 µM; in the assay with MDA-MB-435, over 100 µM; in the assay on A498 renal it was over 100 µM.

Turning to `COc1cc2c(cc1OC)-c1c(cc(OC)c(OC)c1OC)C2=O`, the TGI in the assay on RPMI-8226 leukemia, with NCI-H460 lung, in the assay with RXF-631 renal, with IGROV1 ovarian, in the assay with DLD-1 colon and with HOP-92 NSCLC was over 100 µM in each case. Besides, the TGI with HT29 colon was over 100 µM.

Regarding `CC(NC(=O)C(N)Cc1ccccc1)C(=O)NC(Cc1ccc(O)cc1)C(=O)NC(Cc1c[nH]c2ccccc12)C(=O)NC(CCCCN)C(=O)NC(C(=O)NC(C)C(=O)NC(Cc1ccc2ccccc2c1)C(N)=O)C(C)C` (configuration not stated) (H-FAYWKVA[2Nal]-NH2; configuration not given here), the TGI was over 100 µM with SNB-78 CNS; > 12.5 µM and 30.4 µM in the assay with RPMI-8226 leukemia; > 12.5 µM and 52.3 µM with NCI-H460 lung; > 12.5 µM and 52.1 µM in the assay on SK-MEL-2 melanoma; > 12.5 µM and 49 µM in the assay on IGROV1 ovarian; 54.9 µM in the assay with XF 498 CNS. The TGI in the assay with DLD-1 colon is over 100 µM; in the assay on HT29 colon it was over 100 µM; in the assay with MDA-MB-435, over 12.5 µM; in the assay with A498 renal, > 12.5 µM and 49.4 µM. The GI50 was 16.3 µM in the assay with RPMI-8226 leukemia; 22.7 µM in the assay with NCI-H460 lung; 25.1 µM with SK-MEL-2 melanoma; 24.1 µM in the assay with IGROV1 ovarian; 37.1 µM in the assay with HT29 colon; 19.4 µM in the assay with A498 renal.

As for `O=C(O)C1Cc2nc[nH]c2CN1` (configuration not stated), the TGI in the assay on SNB-78 CNS, in the assay on RPMI-8226 leukemia, in the assay with NCI-H460 lung, in the assay on RXF-631 renal, in the assay on SK-MEL-2 melanoma and in the assay on IGROV1 ovarian was over 100 µM throughout. Also, the TGI with DLD-1 colon, in the assay with HOP-92 NSCLC, with HT29 colon and with A498 renal was over 100 µM each time.

Regarding `O=C1OC(=O)C2C3CCC(O3)C12` (configuration not stated), the TGI in the assay with SNB-78 CNS, with RPMI-8226 leukemia, with NCI-H460 lung, in the assay on SK-MEL-2 melanoma, with IGROV1 ovarian and with XF 498 CNS was over 100 µM each time. The TGI in the assay with DLD-1 colon, with HOP-92 NSCLC, in the assay on HT29 colon and in the assay with A498 renal was over 100 µM in each case.

For the molecule `Cc1cccc(NC(=O)CC2C(=O)Nc3ccccc3S2(=O)=O)c1C` (configuration not stated), the TGI with SNB-78 CNS is 77.3 µM; in the assay on NCI-H460 lung it was 82.4 µM; with SK-MEL-2 melanoma it was 75.4 µM; in the assay on IGROV1 ovarian, 60 µM; in the assay on DLD-1 colon, over 100 µM; in the assay on HOP-92 NSCLC, 37.9 µM. In addition, the TGI in the assay on HT29 colon and in the assay with A498 renal was over 100 µM each time.

As to `Oc1cccc(C2SCc3nc4ccccc4n32)c1` (configuration not stated), the TGI in the assay with SNB-78 CNS, in the assay with RPMI-8226 leukemia, in the assay with NCI-H460 lung, with SK-MEL-2 melanoma, in the assay on DLD-1 colon and in the assay with HOP-92 NSCLC was over 100 µM throughout. The TGI in the assay with HT29 colon and in the assay on A498 renal was over 100 µM throughout.

Turning to `Cc1ccc(C(=O)/C=C/c2ccccc2Cl)cc1`, the TGI in the assay with SNB-78 CNS came to 46.8 µM; in the assay with RPMI-8226 leukemia, 44.4 µM; with NCI-H460 lung, 29.1 µM; with IGROV1 ovarian it was 32.9 µM; in the assay with DLD-1 colon, 36 µM; with HOP-92 NSCLC it was 63.5 µM. Moreover, the values for the TGI in the assay on HT29 colon and in the assay with A498 renal were 29.7 µM and 72.5 µM, respectively.

Regarding `CC(C)OCN1COCN=C1NC#N`, the TGI in the assay with NCI-H460 lung is over 100 µM; with RXF-631 renal, over 100 µM; with SK-MEL-2 melanoma, over 100 µM; in the assay with IGROV1 ovarian it was over 100 µM; in the assay with DLD-1 colon it was 57.6 µM; with HOP-92 NSCLC, over 100 µM. In addition, the TGI with HT29 colon and with A498 renal was over 100 µM each time.

Turning to `O=C(O)/C(O)=C1/C=C(c2ccccc2)c2ccccc21`, the TGI with SNB-78 CNS was over 100 µM; in the assay with RPMI-8226 leukemia, 56.8 µM; in the assay on NCI-H460 lung, 62.7 µM; with RXF-631 renal, 86.3 µM; in the assay with SK-MEL-2 melanoma, 33.1 µM; with IGROV1 ovarian it was 51.8 µM. Further, the TGI in the assay with DLD-1 colon was over 100 µM; with HOP-92 NSCLC it was 34.8 µM; in the assay on HT29 colon, 86.8 µM; in the assay with A498 renal, 98.9 µM.

Take `N/C(=N\C(=S)N1CCCCC1)N1CCCCC1`: the TGI in the assay on SNB-78 CNS, with RPMI-8226 leukemia, in the assay on NCI-H460 lung, with SK-MEL-2 melanoma, in the assay with IGROV1 ovarian and in the assay on XF 498 CNS was over 100 µM each time. Besides, the TGI in the assay with DLD-1 colon, with HOP-92 NSCLC, with HT29 colon and with A498 renal was over 100 µM each time.

For `Cc1ccc(NC(=O)SCCC(=O)O)cc1NC(=O)SCCC(=O)O`, the TGI in the assay with SNB-78 CNS was over 100 µM; with RPMI-8226 leukemia, over 100 µM; with NCI-H460 lung, over 100 µM; in the assay on SK-MEL-2 melanoma it was over 100 µM; in the assay on IGROV1 ovarian, over 100 µM; in the assay with DLD-1 colon, over 10 µM. For the same molecule, the TGI in the assay with HT29 colon and with A498 renal was over 100 µM each time.

As to `O=C(C#Cc1c[nH]c(=O)[nH]c1=O)c1ccccc1`, the TGI is 38.5 µM in the assay with SNB-78 CNS; 30.1 µM in the assay with RPMI-8226 leukemia; 28.6 µM with NCI-H460 lung; 27.4 µM with RXF-631 renal; 24.8 µM in the assay with SK-MEL-2 melanoma; 32.5 µM in the assay with IGROV1 ovarian. Also, the TGI in the assay on DLD-1 colon is 23.4 µM; in the assay with HOP-92 NSCLC it was 27 µM; with HT29 colon it was 53.7 µM; in the assay with A498 renal, 29.1 µM.

With `CCCCCN(CCCCC)C(=O)[C@@H](CCC(=O)OCc1ccccc1)NC(=O)c1cc2ccccc2[nH]1`, the TGI in the assay with SNB-78 CNS, with NCI-H460 lung, with RXF-631 renal, in the assay with SK-MEL-2 melanoma, in the assay on IGROV1 ovarian and in the assay with DLD-1 colon was over 100 µM in each case. Moreover, the TGI with HOP-92 NSCLC, in the assay on HT29 colon and with A498 renal was over 100 µM throughout.

As to `Cc1cc(N2CCN(C)CC2)nc(NC2CCCC(Nc3ccnc4cc(Cl)ccc34)C2)n1` (configuration not stated), the GI50 in the assay with RPMI-8226 leukemia was 1.68 µM; in the assay with NCI-H460 lung, 2.16 µM; in the assay with SK-MEL-2 melanoma it was 1.99 µM; in the assay with IGROV1 ovarian, 2.24 µM; with HOP-92 NSCLC it was 1.67 µM; in the assay on HT29 colon it was 2.14 µM. The figures for the GI50 in the assay with MDA-MB-435 and in the assay with A498 renal were 1.8 µM and 4.31 µM, respectively. Moreover, the TGI in the assay with RPMI-8226 leukemia worked out at 4.95 µM; with NCI-H460 lung it was 5.07 µM; with SK-MEL-2 melanoma, 4.38 µM; in the assay with IGROV1 ovarian, 7.85 µM; in the assay with HOP-92 NSCLC, 3.49 µM; in the assay on HT29 colon, 6.16 µM. Further, the results for the TGI in the assay on MDA-MB-435 and with A498 renal were 3.37 µM and 15.1 µM, respectively.
